The text below walks through data of publication PMC10001324, “Differential Effects of Nonsteroidal Anti-Inflammatory Drugs in an In Vitro Model of Human Leaky Gut” (Cells, 2023).

In one data set the test system is IL-8. Particulars: Caco-2, EtOH exposure 6% for 24 h; control 82.4 ± 0.44 pg/mL.
Another data set has as its system TNF-α. Conditions: Caco-2, EtOH exposure 6% for 24 h; control 10.8 ± 1.3 pg/mL.
Data set [1] in a line: Log P / LogD7.4 by pH-metric titration in octanol (SiriusT3). It counts as physicochemical. Particulars: for logD: pH 7.4; for logP: SiriusT3, octanol. Here is the method:
(§1) The major physicochemical properties of the drugs were determined using the SiriusT3 apparatus (Sirius Analytical Instruments Ltd., East Sussex, UK) equipped with an Ag/AgCl double junction reference pH electrode, a Sirius D-PAS spectrometer, and a turbidity sensing device. The pH electrode was calibrated titrimetrically in the pH range 1.8–12.2 as previously described. The pKas were defined by the potentiometric method by pH-metric titration. The powder (around 0.5 mg) was diluted in 1.5 mL of ISA water and the titration was analyzed in triplicate in the pH range 2.0–12.0.

The test system of data set [2] is Caco-2 cells. In words: Transepithelial electrical resistance (TEER), EtOH-stressed Caco-2. It counts as cell-based, human. Conditions: Caco-2 20 DIV, 6% EtOH 24 h then 0.25, 0.5, 1 mM for 72 h.
A further data set concerns COX-1. Particulars: human blood, cited from earlier work.
Another data set in a line: physchem. Conditions: water. As for the experimental part: as §1
For data set [3], the system named is Caco-2 cells. The data set is described as follows: Morphological analysis of the intestinal barrier (ZO-1 immunofluorescence, phalloidin staining). Particulars: Caco-2, 6% EtOH 24 h then 1 mM for 72 h. It counts as cell-based, human. Here is the method: Cells were then fixed with 3.7% paraformaldehyde (Sigma, USA) in PBS for 15 min at room temperature and then permeabilized with 0.1% Triton X-100 (Sigma, USA) in PBS for 5 min. After further washes with PBS, phalloidin 1000X (ab176753, Abcam, UK) was diluted to 1X in 1% BSA in PBS, and the cells were incubated for 90 min at room temperature (according to the manufacturer’s instructions). Finally, coverslips were mounted on microscope slides with Vectashield Mounting Medium H2000 with DAPI and cells were observed using a Leica SP5 confocal microscope. For each condition, n = 3, 5 fields/slide were analyzed. A representative picture is shown.
Cells were then treated with 6% EtOH (24 h) and then with 1 mM NSAIDs (72 h). Cells were fixed in 3.7% paraformaldehyde in PBS for 15 min at room temperature, rinsed with PBS, and permeabilized with 0.1% Triton X-100 in PBS for 5 min. After further washes with PBS, cells were incubated for 30 min with BSA 4% in PBS and then incubated overnight at 4 °C with the primary antibody zonulin-1 (ZO-1) (33-910, Thermo Scientific, MA, USA rabbit anti-human, dilution 1:100). […] Finally, coverslips were mounted on microscope slides with Vectashield Mounting Medium with DAPI and cells were observed using a Leica SP5 confocal microscope.

In data set [4] the test system is Caco-2 cells. In words: DCFDA cellular ROS assay, Caco-2. It counts as cell-based, human. Particulars: compared to EtOH challenge alone; Caco-2, 1 mM for 72 h.
The test system of a further data set is IKBα. In words: IKBα protein levels by western blotting, Caco-2. It counts as cell-based, human. Conditions: Caco-2, 6% EtOH 24 h then 1 mM for 72 h.
The test system of another data set is IKBα/4-HNE adducts. In words: Immunoprecipitation for IKBα, IKBα/4-HNE adducts, Caco-2. It counts as cell-based, human. Particulars: Caco-2, EtOH then 1 mM for 72 h. Here is the method:
The columns were incubated overnight at 4 °C. […] Values were given as RU.

The subject of the next data set is COX-2. Conditions: human blood, cited from earlier work.
Data set [5] deals with Caco-2 cells. Particulars: effect on EtOH-induced increase; Caco-2, 1 mM for 72 h. As for the experimental part: OxyBlot protein oxidation detection kits (S7150, Millipore Company, Burlington, MA, USA) were used according to the manufacturer’s instructions. Briefly, cells were plated (seeding density 3 × 10^5 cells/cm^2) in a complete medium in a T75 flask and cultured for 20 days post-confluence. After 20 days, cells were exposed for 24 h to EtOH (6%) and for 72 h to NSAIDs (1 mM). OxyBlot assay was then performed as previously reported.

Data set [6] has as its system Glutathione-S-transferase (GST). Conditions: effect on EtOH-induced decrease; Caco-2, 1 mM for 72 h.
The subject of the next data set is 4-HNE. In words: 4-HNE levels by WB, Caco-2. Conditions: Caco-2, 6% EtOH 24 h then 1 mM for 72 h. It counts as cell-based, human.
Data set [7] in a line: Caco-2 permeability assay (Papp, Ap-Bl). It counts as in vitro ADME. Conditions: human, Caco-2, apical to basolateral. Here is the method: Papp is the apparent permeability of a compound across a membrane. For drug transport studies, cells were seeded at a density of 3 × 10^5 cells/cm^2 on permeable support with 0.4 µm Transparent PET Membrane in complete medium, cultured and treated as described above.
Drug transport across Caco-2 monolayers was studied in the Ap–Bl direction, fresh drug and provided to the apical side (donor compartment), and the fresh vehicle was provided to the basolateral side (receiver compartment). For each solution, aliquots of 500 μL were collected immediately after the addition of compounds to the cells (the “time zero”), and after appropriate dilution, an HPLC analysis was performed. At the end of the experiment, after 120 min of incubation, 500 μL of the donor chamber solution was diluted and an HPLC analysis was performed.
(In general: Caco-2 monolayers are a common model of the intestinal barrier.)

A further data set deals with NFkB. In words: NFkB translocation in LPS-activated RAW 264.7 macrophages. Conditions: 1 mM for 24 h. It counts as cell-based, murine. Here is the method: The murine macrophage cell line RAW 264.7 (ATCC TIB-71) was purchased from ATCC, and cells were cultured as indicated by the manufacturer. For the experiment, cells were seeded 10,000/cm^2 for 24 h, starved for 4 h (w/o serum), and activated with lipopolysaccharides (LPS 10 ng/mL for 24 h; Sigma Aldrich, St. Louis, MO, USA). […] RAW 264.7 cells were seeded at 10,000 cells/cm^2 and activated with LPS. […] For both Caco-2 and RAW 264.7 cells, the procedure of extraction of different components was performed as previously reported. The protein fraction extracts were separated on a 10% SDS–polyacrylamide gel and electroblotted onto PVDF. Nonspecific binding sites were blocked by EBB for 5 min. Membranes were then incubated overnight at 4 °C with anti-NFκB and anti-PPARγ. As secondary antibodies, peroxidase-conjugated anti-rabbit, and anti-mouse were used. Bands were detected using Alliance 4.7 UVITEC (Cambridge, UK) and analyzed by ImageJ software. The relative densities of the immunoreactive bands were normalized to anti-Actin or anti-laminin using ImageJ software. Values were given as RU.

The subject of the next data set is COX. Conditions: cited from earlier work.

≈ marks a conversion by molar mass, not a printed value. Like-named read-outs stand apart in the source and are kept apart here.

For `CCO` [EtOH, Ethanol], in the data set with IL-8, the “Secreted IL-8 levels” value worked out at 283.9 ± 4.1 pg/mL. In addition, in the data set with TNF-α, the “Secreted TNF-α levels” value amounted to 20.9 ± 0.7 pg/mL.
The term logD denotes the decadic logarithm of the distribution of all forms, ionised or not, between an organic phase and buffer at a given pH. A lower logD goes with a more hydrophilic compound. As a reminder, the logP is a log measure of how a compound divides between an organic and an aqueous phase. The IC50 is the concentration that gives 50% inhibition. By solubility is commonly meant the dissolved amount per volume that the medium holds. Lower therefore signals little dissolved substance. In data set [1] (octanol/ISA water), `CC(C)Cc1ccc(C(C)C(=O)O)cc1` (stereo not drawn) [Ibuprofen] registered a logD of 0.96 and a logP of 3.91 ± 0.01. The TEER result with Caco-2 cells [2] was “partial but significant protective activity”. Besides, the 50% inhibitory concentration (IC50) in the data set on COX-1 (ref 23) is […]. Moreover, the IC50 in the data set with COX-1 (ref 24) was […]. Further, the solubility in the data set “physchem” was determined as 49 µg/mL (≈ 238 µM).
Take `CC(C(=O)O)c1cccc(C(=O)c2ccccc2)c1` (stereo not drawn) [Ketoprofen, ketoprofen]: the “intestinal barrier integrity (ZO-1 and phalloidin staining)” value in the data set with Caco-2 cells [3] is recorded as “did not show the ability to protect Caco-2 cells”. Further, in the data set on Caco-2 cells [4], the “DCFDA fluorescence intensity (cellular ROS)” value is “more substantial”. The IKBα protein levels entry with IKBα is “counteracted the EtOH-induced IKBα decrease”. Further, in data set [1] (octanol/ISA water), the logP amounted to 3.05 ± 0.01. This compound gave a logD in [1] of 0.12. Also, the IC50 in the data set on COX-1 (ref 23) is 0.047 µM; with COX-1 (ref 24), 0.11 µM; in the data set with COX-2 (ref 23) it was 2.9 µM; in the data set on COX-2 (ref 24), 0.88 µM. Further, in the data set on IKBα/4-HNE adducts, the IKBα/4-HNE adduct formation entry was “reduced the formation of the adducts”.
For `NCCCC[C@H](N)C(=O)O` [Lys, L-lysine], the “intestinal barrier integrity (ZO-1 and phalloidin staining)” value with Caco-2 cells [3] is “did not show the ability to protect Caco-2 cells”. In addition, the “levels of oxidized proteins (OxyBlot)” value with Caco-2 cells [5] was “did not exhibit direct antioxidant effects”. Besides, in the data set on IKBα/4-HNE adducts, the IKBα/4-HNE adduct formation entry is given as “not”. In addition, the GST activity entry in data set [6] is “not observed”. For the same compound, the 4-HNE levels result in the data set with 4-HNE is recorded as “not”.
Broadly, the Papp is the rate of passage across a membrane or cell layer, normalised by area and donor concentration. Regarding `C[C@@H](C(=O)O)c1cccc(C(=O)c2ccccc2)c1` [R enantiomer, R-Ketoprofen], the Papp at 120 min in data set [7] (Caco-2, K) came to 0.579 ± 0.052 ×10⁻⁶ cm/s; in data set [7] (Caco-2, KLS) it was 1.19 ± 0.044 ×10⁻⁶ cm/s. In addition, the NFkB translocation result with NFkB is on record as “inhibited NFkB translocation to the same extent as KLS”. Besides, the “potency as a COX inhibitor” value with COX is given as “several logs less potent than the S enantiomer”.
With `C[C@H](C(=O)O)c1cccc(C(=O)c2ccccc2)c1` [S enantiomer, (S)-ketoprofen], the Papp at 120 min in data set [7] (Caco-2, K) stood at 0.576 ± 0.031 ×10⁻⁶ cm/s; in [7] (Caco-2, KLS) it was 1.19 ± 0.026 ×10⁻⁶ cm/s. Moreover, in the data set on NFkB, the NFkB translocation result is on record as “not”.
